Data on one compound can be found in patent publication US20190192521A1, “Methods of Treating Arid1A-Mutated Cancers With HDAC6 Inhibitors and EZH2 Inhibitors” (The Wistar Institute of Anatomy and Biology, priority 2016, published 2019).

The test system of test [1] is ovarian clear cell carcinoma cell lines with known ARID1A mutational status. As to the kind of experiment: colony formation assay, panel of ovarian clear cell carcinoma cell lines with or without ARID1A mutation. It is filed as cell-based, human. The note with it: 12 days. On the procedure:
After 12 days culture, integrated density of colony formed by the indicated cells was quantified using NIH Image J software, and values were normalized to vehicle control. Data represent triplicates from independent experiments. Error bars represent S.E.M. The p-value was calculated via two-tailed t-test.
Indicated ovarian clear cell carcinoma cell lines with known ARID1A mutational status were treated with the indicated concentration of HDAC6 inhibitor CAY10603 or vehicle control in a colony formation assay. After 12 days culture, integrated density of colony formed by the indicated cells was quantified using NIH Image J software, and values were normalized to vehicle control. Data represent triplicates from independent experiments. Error bars represent S.E.M.
(§1) Colony formation assays were performed as follows. Cell lines were infected with lentivirus pLKO.1-shRNAs or pLKO.1-control with puromycin selection marker. Infected cells were selected with 1 μg/mL of puromycin for 72 hours and the selected cells were seeded in 12-well or 24-well plates. Cell medium was changed every three days with appropriate drug doses for 14 days or until control wells became confluent. Colonies were washed twice with PBS and fixed with 10% methanol and 10% acetic acid in distilled water. Fixed colonies were stained with 0.005% crystal violet. Integrated density was measured using NIH ImageJ software.

Test [2] has as its system ARID1A-mutated TOV21G cells. Description: ACY1215 sensitivity of TOV21G cells with or without wildtype ARID1A restoration. In kind it is cell-based, human. On the procedure:
as §1

Test [3] concerns cells with BRG1 knockdown. Description: ACY1215 sensitivity after knockdown of SWI/SNF subunit BRG1. In kind it is cell-based. On the procedure: Retrovirus production and transduction were performed as described in Aird et al. Cell Reports 2013, 3, 1252-1265, and Bitler et al. Nat. Med. 2015, 21, 231-238. Phoenix cells were used to package the viruses. Lentivirus was packaged using the Virapower Kit from Life Technologies (Carlsbad, Calif.) following the manufacturer's instructions, and as described Aird et al. Cell Reports 2013, 3, 1252-1265, and Bitler et al. Nat. Med. 2015, 21, 231-238. pLKO.1-shARID1As (TRCN0000059090), pLKO.1-shp53 (TRCN0000010814 and TRCN0000003755), pLKO.1-shHDAC6 (TRCN0000004839 and TRCN0000004841), pLKO.1-shCaspase 3 (TRCN0000003550), shCaspase 9 (TRCN0000003583), shCaspase 8 (TRCN0000003577 and TRCN0000003579)and shBRG1 (TRCN0000015549 and TRCN0000015552) were obtained from Open Biosystems. A shRNA to luciferase was used as a control. […] Cells infected with viruses encoding the puromycin resistance gene were selected in 1 μg/ml puromycin.

Test [4] deals with ARID1A-mutated TOV21G and OVISE cells. As to the kind of experiment: apoptosis (Annexin V, cleaved caspase 3, cleaved PARP p85) in ARID1A-mutated cells. It is filed as cell-based, human. The procedure:
FIG. 10 illustrates the finding that HDAC6 inhibition induces apoptosis in ARID1A-inactivated cells. […] Cells were collected and stained for apoptotic markers Annexin V. Apoptotic cells were quantified. Error bars represent standard error of the mean. The p-value was calculated via a two-tailed t-test.
FIG. 11 illustrates the results of the experiments of FIG. 10, but examined for apoptotic markers cleaved caspase 3 and cleaved PARP p85 by immunoblot. GAPDH expression was used as a loading control.
Cells were collected, incubated with an Annexin V-FITC antibody and subjected to flow cytometry analysis. Annexin V-positive cells (apoptotic) were measured with FloJo software. Mean of three independent experiments with S.E.M.
FIG. 78 illustrates percent apoptosis based on Annexin V staining in ARID1A mutated TOV21G cells treated with 1.25 μM ACY1215, 20 μM pan-caspase inhibitor Q-VD-Oph, or a combination for 48 hrs.
FIG. 79 illustrates percent apoptosis based on Annexin V staining in ARID1A mutated TOV21G cells treated with 1.25 μM ACY1215 for 48 hrs with or without knockdown of caspase 3 or caspase 9.
(§2) For immunoblotting, protein was isolated as described in Bitler et al. Nat. Med. 2015, 21, 231-238. Briefly, protein was extracted with RIPA buffer (150 mM NaCl, 1% NP40, 0.5% sodium deoxycholate, 0.1% SDS, 50 mM Tris pH 8.0, and 1 mM PMSF). Protein was separated on a SDS-PAGE and transferred to PVDF membrane. For immunoblot of p53 post-translation modifications, cells were treated with a proteasome inhibitor MG132 (10 μM) to stabilize p53 protein.
(§3) Annexin V and mitochondria membrane potentials were measured as follows. Phosphatidylserine externalization was detected using an Annexin V staining kit (Life Technologies) following the manufacturer's instructions. To measure change in mitochondria membrane potential cells were treated with 200 nM of tetramethylrhodamine, ethyl ester (TMRE; Abcam) for 15 min at 37° C. Annexin V and TMRE-positive cells were detected using the LSR18 and analyzed with the FlowJo software module.

Test [5] deals with ARID1A-mutated OVISE cells. Description: growth inhibition with or without p53 knockdown, OVISE. In kind it is cell-based, human. The procedure:
Growth inhibition was calculated based on integrated density as measured in NIH ImageJ, and values were normalized to vehicle control. Data is representative of 3 independent experiments. Error bars represent S.E.M. p-value calculated via two-tailed t-test.
as §1

The subject of test [6] is p53K120Ac in ARID1A wild-type RMG1 cells with or without ARID1A knockdown. As to the kind of experiment: immunoblot of p53K120Ac, RMG1 with or without shARID1A. It is filed as cell-based, human. The settings on record: 1.25 μM. The procedure: Expression of the indicated proteins was examined by immunoblot. GAPDH expression was used as a loading control.
as §2
For orientation: A western blot detects proteins with antibodies after separation by electrophoresis.

Test [7] deals with p53 target genes (BAX, PUMA, NOXA, CDKN1A) in ARID1A-mutated TOV21G cells. Description: RNA-seq of p53 target genes. In kind it is cell-based, human. The note with it: 1.25 μM. The text has this: RNA was extracted and utilized for next generation sequencing (RNA-seq). Expression of p53 target genes known to regulate apoptosis such as BAX, PUMA and NOXA, and known to regulate cell cycle arrest such as CDKN1A were not altered by HDAC6 inhibition in RNA-seq analysis.

Test [8] deals with ARID1A-mutated TOV21G cells. As to the kind of experiment: mitochondrial membrane potential (TMRE, FACS), TOV21G. In kind it is cell-based, human. The procedure:
Mean of five experimental replicates with S.E.M. p-value calculated via two-tailed t-test.
FIG. 96 illustrates ARID1A-mutated TOV21G cells with or without endogenous p53 knockdown by a shp53 that targets the 3′ UTR region of the human TP53 gene together with a lentivirus encoding a control, wildtype p53 or a p53K12OR mutant—the indicated cells were treated with or without ACY1215 and examined for mitochondrial membrane potential by FACS; n=3 independent experiments.
as §3

Test [9] concerns ARID1A wild-type RMG1 cells with or without shARID1A. Description: mitochondrial membrane potential (TMRE, FACS), RMG1. In kind it is cell-based, human. The settings on record: 1.25 μM. The procedure: The mitochondria membrane potential was quantified by TMRE using FACS analysis. Data was collected via FACS and is representative of 3 independent experiments.
Error bars represent standard error mean. The p-value was calculated via two-tailed t-test.
as §3

Turning to `O=C(CCCCCCNC(=O)c1cnc(N(c2ccccc2)c2ccccc2)nc1)NO` [rocilinostat, 2-(diphenylamino)-N-(7-(hydroxyamino)-7-oxoheptyl)pyrimidine-5-carboxamide], the “sensitivity of ARID1A-mutated cells compared with ARID1A wild-type cells” value in test [1] is “more sensitive”. In addition, the “effect of restoration of wildtype ARID1A on sensitivity” value in test [2] was “reduced the sensitivity”. The “effect of BRG1 knockdown on sensitivity” value in [3] is listed as “did not increase”. Also, the “apoptosis induced by the compound after knockdown of Caspase 8” value in test [4] is “did not affect the apoptosis”. Moreover, the “apoptosis induced by the compound after knockdown of caspase 9 or caspase 3” value in test [4] (TOV21G, 1.25 μM, 48 hrs) is recorded as “significantly suppressed the apoptosis”. Also, in test [4] (rocilinostat 1.25 μM, 48 hours), the “apoptosis: Annexin V positive cells, cleaved caspase 3, cleaved PARP p85” value is reported as “induced apoptosis”. The “effect of p53 knockdown on apoptosis and growth inhibition induced by the compound” value in test [5] was “significantly impaired the apoptosis and growth inhibition”. In test [6], the “p53K120Ac in ARID1A knockdown cells compared with controls” value is “significant increase in p53K120Ac”. The “expression of p53 target genes (BAX, PUMA, NOXA, CDKN1A)” value in [7] is given as “not altered”. The “mitochondrial membrane potential in ARID1A-mutated cells” value in [8] (1.25 μM) was “significantly decreased”. Besides, in [8] (p53 knockdown, wildtype p53 or p53K120R rescue), the “dependence of mitochondrial membrane potential decrease” value is “both p53 and p53K120Ac dependent”. Besides, the “mitochondrial membrane potential, ARID1A knockdown compared with controls” value in [9] was “significantly decreased”.
